≈ marks a conversion by molar mass, not a printed value.
Settings: buffer; pH 7.4; 200.0 µM

| SMILES | solubility kinetic [µg/mL] |
| --- | --- |
| CCCC(=O)N1CCN(c2nc3ccc(Cl)cc3s2)CC1 | 46.3 (≈ 143 µM) |
| Cc1cccc(N2CCN(C(=O)[C@H](C)N3C(=O)C4CC=CCC4C3=O)CC2)c1C (stereo not given in full) | > 59.3 |
| CC(C)C(=O)OCC(=O)NCc1ccccc1Cl | 37.6 (≈ 139 µM) |
| O=C1c2ccccc2C(O)N1c1ccccc1 (stereo not given) | > 33.8 |
| Cc1cccc(C(=O)OCc2cncs2)c1 | 28.9 (≈ 124 µM) |
| CN(Cc1ccccc1)C(=O)CN1C(=O)NC2(CCCC2)C1=O | > 47.3 |
| Nc1cc(C(=O)O)ccc1Sc1ccccc1C(=O)O | > 43.4 |
| Cc1ccc(Nc2ncnc(-n3cccc3)n2)cc1Cl | < 0.1 |
| Cc1ccc(S(=O)(=O)c2nc(-c3cccs3)oc2N2CCC(C(N)=O)CC2)cc1 | > 64.7 |
| CC(C)(CNCc1ccccc1)NS(=O)(=O)c1ccc(Cl)cc1 | > 52.9 |
| O=C(COC(=O)Cc1c[nH]c2ccccc12)Nc1ccccc1C(F)(F)F | > 56.5 |
| CC1CCCCC12NC(=O)N(CC(=O)c1ccc(Cl)s1)C2=O (stereo not given) | 8.5 (≈ 24.9 µM) |
| CNC(=S)Nc1ccc(OC(F)(F)F)cc1 | 35.4 (≈ 141 µM) |
| O=C(COC(=O)c1ccc(Cl)cc1)NCC1CCCCC1 | 5.4 (≈ 17.4 µM) |
| CCCN(CCC)CC(C)(C)NS(=O)(=O)c1ccc(Cl)cc1 | 39.6 (≈ 114 µM) |
| CCCN1C2CCCC1CC(NC(=O)NC13CC4CC(CC(C4)C1)C3)C2 (stereo not given) | > 53.9 |
| COc1ccc(NC(=O)COC(=O)C2CC3C=CC2C3)cc1 (stereo not given) | > 45.2 |
| CN(C(=O)c1ccncc1)C1CCCN(Cc2ccccc2F)C1 (stereo not given) | > 49.1 |
| COC(=O)c1cccc(NC(=O)c2ccc[n+]([O-])c2)c1 | > 40.8 |
| CCn1ncc(N2CCOCC2)c(Cl)c1=O | > 36.6 |
| CC(=O)N(C(C)=O)c1c(N2CCCC2)c2ccccc2oc1=O | 46.1 (≈ 147 µM) |
| O=C(CN1C(=O)NC2(CCCC2)C1=O)NCc1ccccc1 | > 45.2 |

| SMILES | solubility kinetic [µg/mL] |
| --- | --- |
| COc1ccccc1/C=C/CN1CCCCC1 | 25.8 (≈ 112 µM) |
| O=c1[nH]cccc1-c1nc2cc(Cl)ccc2n1Cc1ccccc1 | 5.7 (≈ 17 µM) |
| CN(Cc1ccccc1)C(=O)Cc1ccccc1 | 35.5 (≈ 148 µM) |
| CC(=O)c1ccc(N2CCN(C(=O)c3ccc4[nH]c(C)c(C)c4c3)CC2)cc1 | 1.6 (≈ 4.26 µM) |
| O=C1CCCN1CCCNS(=O)(=O)c1ccc(F)c(F)c1 | > 47.8 |
| Cc1ccc(S(=O)(=O)NCCc2ccncc2)cc1[N+](=O)[O-] | 46.2 (≈ 144 µM) |
| CCOc1ccc(S(=O)(=O)N2CCCCC2)cc1NC(=O)c1cccnc1OCC | 1.2 (≈ 2.77 µM) |
| Cc1ccc(-c2cc(C(=O)N3CCOCC3)no2)cc1 | > 40.8 |
| COC(=O)CSc1ncnc2scc(-c3ccccc3)c12 | 11.2 (≈ 35.4 µM) |
| COc1c(C)cc(S(=O)(=O)NCCN2CCOCC2)c(C)c1C | 46.4 (≈ 135 µM) |
| S=C(NCc1cccnc1)Nc1ccc(Cl)cc1Cl | > 46.8 |
| O=C(CNC(=O)c1ccccc1F)NCCc1ccc(Cl)cc1 | 47.5 (≈ 142 µM) |
| COc1cc(C)c(S(=O)(=O)NCCCn2ccnc2)cc1C | 39.6 (≈ 122 µM) |
| Cc1ccc(CNC(=O)c2ccc(OCC(C)C)cc2)n1C | 27.6 (≈ 91.9 µM) |
| COc1ccc(-n2c(C)cc(=O)[nH]c2=O)cc1 | > 34.8 |
| CCOc1ccc(NC(=O)CN2C(=O)NC(CCc3ccccc3)C2=O)cc1OCC (stereo not given) | 8.8 (≈ 20.7 µM) |
| O=C(CN1C(=O)/C(=C2/SC(=S)N(CCS(=O)(=O)O)C2=O)c2ccccc21)Nc1cccc(C(F)(F)F)c1 | 5.9 (≈ 10.3 µM) |
| COc1ccc(C(=O)NCC2CCCO2)cc1OC (stereo not given) | 35.7 (≈ 135 µM) |
| CC(=O)N1CCN(c2ccc(S(C)(=O)=O)cc2[N+](=O)[O-])CC1 | > 49.1 |
| Cc1ccc2c(c1)C1(C)C(C(C)(C)N2C=O)C1(Cl)Cl (stereo not given) | 39.3 (≈ 132 µM) |
| CCCc1cc(=O)[nH]c(SCC(=O)Nc2ccc(Br)cc2)n1 | 1.1 (≈ 2.88 µM) |
| Cc1cc(C)c(OCC(=O)N2CC=C(c3ccccc3)CC2)c(C)c1 | 13 (≈ 38.8 µM) |

| SMILES | solubility kinetic [µg/mL] |
| --- | --- |
| O=C(NCCCNC(=O)c1cc(Cl)ccc1Cl)c1ccco1 | 44.3 (≈ 130 µM) |
| Cc1ccccc1NC(=O)CCN1CCCC1.Cl | > 40.3 |
| COC(=O)c1cc(OC)c(OC)cc1NC(=S)N1CCCC1 | 6.3 (≈ 19.4 µM) |
| O=C(OCc1c(F)cccc1Cl)c1cnc(Cl)c(Cl)c1 | < 0.7 |
| FC(F)(F)c1ccc(NCCc2ccccc2)nc1 | 3.7 (≈ 13.9 µM) |
| Cn1nc(C(F)(F)F)c(-c2ccccc2)c1NC(=O)CSCC(=O)O | > 56 |
| N#CC1(C#N)C(C(=O)C23CC4CC(CC(C4)C2)C3)C12CCOCC2 (stereo not given) | 3.3 (≈ 10.2 µM) |
| CCc1nc2oc3ccccc3c(=O)c2c(=O)n1-c1ccc(C)cc1 | 44.2 (≈ 133 µM) |
| O=C(COC(=O)c1cncc(Br)c1)NC1CCCCC1 | 46.6 (≈ 137 µM) |
| Cc1ccc([N+](=O)[O-])cc1N=C1C(=O)Nc2ccccc21 | 37.4 (≈ 133 µM) |
| O=C(NC1CCCCC1)c1ccc(-c2ccccc2)cc1 | < 0.6 |
| O=C(Nc1ncccn1)c1ccc([N+](=O)[O-])cc1[N+](=O)[O-] | 38.7 (≈ 134 µM) |
| CSCc1ccc(C(=O)NC(C)c2ccc(-n3ccnc3)cc2)cc1 (stereo not given) | 42.1 (≈ 120 µM) |
| CCN(C/C=C/c1ccccc1OC)Cc1ccccc1 | 18.3 (≈ 65 µM) |
| O=C(NCCCCCCNC(=O)c1ccccc1O)c1ccccc1O | 1.2 (≈ 3.37 µM) |
| COC(=O)c1cc(S(=O)(=O)N2CCC(C)CC2)cn1C | 41.9 (≈ 139 µM) |
| Cn1ccc(C(=O)Nc2ccc3c(c2)OCCO3)n1 | > 38.9 |
| Cc1cc(C)c(NC(=O)CCCN2CCCC2)c(C)c1 | > 41.2 |
| NS(=O)(=O)c1ccc(CCNC(=O)c2ccc3nccnc3c2)cc1 | > 53.5 |
| COc1ccc(S(=O)(=O)NCCC(=O)OCC(=O)NC2CC2)cc1 | > 53.5 |
| CC(=O)c1cccc(NC(=O)N2CCCCCC2)c1 | > 39.1 |
| CCc1ccc(NS(=O)(=O)c2c(C)noc2C)cc1 | > 42.1 |

| SMILES | solubility kinetic [µg/mL] |
| --- | --- |
| CC1CCCCC1NC1CCN(C)CC1 (stereo not given) | > 31.6 |
| CCC(C)NC(=O)c1cc(-c2ccc3c(c2)OCO3)on1 (stereo not given) | 3 (≈ 10.4 µM) |
| Cc1cc(C)cc(C(=O)NCCN2CCOCC2)c1 | > 39.4 |
| CCn1c(NCc2ccc(OC)cc2)nc2ccccc21 | > 42.2 |
| Nc1nc(CCl)nc(Nc2cccc3ccccc23)n1 | 41 (≈ 143 µM) |
| Cc1nc(-c2cccc(S(=O)(=O)N3CCCCC3)c2)cs1 | 24.3 (≈ 75.4 µM) |
| COC(=O)c1ccccc1S(=O)(=O)N1CCn2cccc2C1C (stereo not given) | 43.2 (≈ 129 µM) |
| Cc1onc(-c2ccccc2)c1C(=O)NC(C)CCc1ccccc1 (stereo not given) | 1.1 (≈ 3.29 µM) |
| Cc1cc(C)c2c(=O)[nH]c(SCC(=O)N3CCOCC3)nc2n1 | > 50.2 |
| O=C(Nc1cccc(N2C(=O)C=CC2=O)c1)c1cccs1 | > 44.7 |
| CCC(NC(=O)Cc1cccs1)c1ccccc1 (stereo not given) | > 38.9 |
| Cc1cc(C)c(NC(=O)CN(C)CC(=O)Nc2cccc(S(=O)(=O)N(C)c3ccccc3)c2)c(C)c1.O=C(O)C(=O)O | 14.3 |
| CC(=O)N1CCN(c2ccc([N+](=O)[O-])c(NCc3cccnc3)c2)CC1 | > 53.3 |
| Nc1cc(N2CCCC2)c(Cl)cc1[N+](=O)[O-] | 3 (≈ 12.4 µM) |
| COc1cccc(Nc2cc(C)c3ccccc3n2)c1 | 8.7 (≈ 32.9 µM) |
| CCN(CC)C(=O)c1cccc2nc3ccccc3nc12 | > 41.9 |
| Cn1c(CC(=O)NNC(=O)c2cccnc2)nc2ccccc21 | > 46.4 |
| Cc1ccc(C(=O)NC23CC4CC(CC(C4)C2)C3)c(Cl)c1 | 0.7 (≈ 2.3 µM) |
| O=C(Cn1cc([N+](=O)[O-])cn1)NC1CCCCCC1 | > 39.9 |
